Laboratory results as given in patent US20080194585A1, “Fungicidal Pyrazine Derivatives” (priority 2005, published 2008).
Marks after values point to notes of the source that are not given here.

Assays:
Phytophthora infestans = test: whole plant or invertebrate; assay type: in vivo
Pythium aphanidermatum = test: Test A: bluegrass pythium blight, preventive spray on bluegrass seedlings
Plasmopara viticola = test: Test D: grape downy mildew, spray after inoculation of grape seedlings; assay type: in vivo
Description: Upon removal, disease ratings were made. […] A dash (-) indicates no test results.

[1] = tested on: Erysiphe graminis f. sp. tritici; test: Test L: wheat powdery mildew, preventive spray on wheat seedlings
Septoria nodorum = test: Test H: wheat glum blotch, preventive spray on wheat seedlings
Description: (the causal agent of wheat glum blotch) and incubated in a saturated atmosphere at 20° C. for 48 h, and then moved to a growth chamber at 22° C. for 5 days, after which disease ratings were made.

Septoria tritici = test: Test J: wheat leaf blotch, preventive spray on wheat seedlings; assay type: in vivo
Description: A dash (-) indicates no test results.

Rhizoctonia oryzae = test: Test G: turf brown patch, preventive spray on creeping bent grass seedlings
Description: (the causal agent of turf brown patch) and incubated in a saturated atmosphere at 27° C. for 24 h, and then moved to a growth chamber at 27° C. for 5 days, after which disease ratings were made.

Botrytis cinerea = test: Test E: tomato botrytis, preventive spray on tomato seedlings
[2] = tested on: Colletotrichum orbiculare; test: Test B: cucumber Colletotrichum anthracnose, preventive spray on cucumber seedlings
fusarium graminearium = test: Test I: wheat head scab, preventive spray on wheat seedlings
Description: (the causal agent of wheat head scab) and incubated in a saturated atmosphere at 20° C. for 72 h, and then moved to a growth chamber at 22° C. for 5 days, after which disease ratings were made.

[3] = tested on: Puccinia recondita f. sp. tritici; test: Test K: wheat leaf rust, preventive spray on wheat seedlings
Sclerotinia sclerotiorum = test: Test C: cucumber white mold, preventive spray on cucumber seedlings
[4] = 40 ppm (marked *), 100 = 100% disease control, 0 = no control

Row | SMILES | Test F disease control rating (Phytophthora infestans; 40 ppm (*)) | Test A disease control rating (Pythium aphanidermatum; 40 ppm (*)) | Test D disease control rating (Plasmopara viticola; 40 ppm (*)) | Test L disease control rating ([1]; 40 ppm (*)) | Test H disease control rating (Septoria nodorum; 40 ppm (*)) | Test J disease control rating (Septoria tritici; 40 ppm (*)) | Test G disease control rating (Rhizoctonia oryzae; 40 ppm (*)) | Test E disease control rating (Botrytis cinerea; 40 ppm (*)) | Test B disease control rating ([2]; 40 ppm (*)) | Test I disease control rating (fusarium graminearium; 40 ppm (*)) | Test K disease control rating ([3]; 40 ppm (*)) | Test C disease control rating (Sclerotinia sclerotiorum; 40 ppm (*)) | Test F disease control rating (Phytophthora infestans; 200 ppm) [%] | Test A disease control rating (Pythium aphanidermatum; 200 ppm) [%] | Test D disease control rating (Plasmopara viticola; 200 ppm) [%] | Test I disease control rating (fusarium graminearium; 200 ppm) [%] | Test C disease control rating (Sclerotinia sclerotiorum; 200 ppm) [%] | also measured
1 | CC(C)Cn1c(-c2cccc(Br)c2)c(Cl)nc(-n2cncn2)c1=O [compound 234] | 0* % | 0* % | 0* % | 0* % | 0* % | 0* % | 0* % | 0* % | 0* % | 0* % | 0* % | 0* % | – | – | – | – | – | –
2 | CC(C)Cn1c(-c2c(F)ccc(F)c2F)c(Cl)nc(-n2cccn2)c1=O [compound 57] | – | – | – | – | – | 99* % | – | – | – | – | – | – | 0 | 0 | 32 | 0 | 98 | Test L disease control rating ([1]; 200 ppm): 100%; Test H disease control rating (Septoria nodorum; 200 ppm): 100%; Test G disease control rating (Rhizoctonia oryzae; 200 ppm): 98%; Test E disease control rating (Botrytis cinerea; 200 ppm): 100%; Test B disease control rating ([2]; 200 ppm): 100%; Test K disease control rating ([3]; 200 ppm): 100%
3 | COC(=O)Cn1c(-c2c(F)cccc2F)c(Cl)nc(-n2cccn2)c1=O [compound 122] | 0* % | 0* % | 58* % | 0* % | 0* % | 7* % | 16* % | 49* % | 0* % | 0* % | 28* % | 0* % | – | – | – | – | – | –
4 | CC(C)Cn1c(-c2ccc(F)cc2Cl)c(Cl)nc(-n2cccn2)c1=O [Compound 53, 5-Chloro-6-(2-chloro-4-fluorophenyl)-1-(2-methylpropyl)-3-(1H-pyrazol-1-yl)-2(1H)-pyrazinone] | – | – | – | – | – | 100* % | – | – | – | – | – | – | 0 | 0 | – | – | – | pest or weed control at 200 ppm (Plasmopara viticola; Plasmopara viticola, 168 h, 200 ppm, read-out: Test D disease control rating): 0%; pest or weed control at 200 ppm ([1]; Blumeria graminis, in Triticum aestivum, 168 h, read-out: Test L disease control rating, 200 ppm): 99%; pest or weed control at 200 ppm (Septoria nodorum; Parastagonospora nodorum, in Triticum aestivum, topical, 168 h, read-out: Test H disease control rating, 200 ppm): 100%; pest or weed control at 200 ppm (Rhizoctonia oryzae; Waitea circinata, in Agrostis stolonifera, topical, 144 h, read-out: Test G disease control rating, 200 ppm): 82%; pest or weed control at 200 ppm (Botrytis cinerea; Botrytis cinerea, in Solanum lycopersicum, topical, 72 h, read-out: Test E disease control rating): 100%; pest or weed control at 200 ppm ([2]; Colletotrichum orbiculare, in Cucumis sativus, 144 h, read-out: Test B disease control rating, 200 ppm): 100%; pest or weed control at 200 ppm (fusarium graminearium; Fusarium, in Triticum aestivum, topical, 192 h, read-out: Test I disease control rating, 200 ppm): 90%; pest or weed control at 200 ppm ([3]; Puccinia recondita, in Triticum aestivum, 192 h, read-out: Test K disease control rating): 100%; pest or weed control at 200 ppm (Sclerotinia sclerotiorum; Sclerotinia sclerotiorum, in Cucumis sativus, 168 h, read-out: Test C disease control rating, 200 ppm): 99%
5 | COCC(C)n1c(-c2c(F)cccc2F)c(Cl)nc(-n2cncn2)c1=O (stereo not drawn) [compound 94] | – | – | – | 0* % | 0* % | 14* % | 0* % | 0* % | 0* % | – | 0* % | – | 0 | 0 | 0 | 0 | 0 | –
6 | CC(C)Cn1c(C(C)c2ccccc2)c(Cl)nc(-n2cncn2)c1=O (stereo not drawn) [compound 133] | 0* % | 0* % | 0* % | 0* % | 0* % | 23* % | 0* % | 0* % | 0* % | 0* % | 0* % | 0* % | – | – | – | – | – | –
7 | CSCCn1c(-c2c(F)cccc2F)c(Cl)nc(-n2cccn2)c1=O [compound 97] | – | – | – | 0* % | 0* % | 24* % | 0* % | 100* % | 0* % | – | 0* % | – | 0 | 0 | 64 | 0 | 0 | –
8 | CC(C)Cn1c(-c2ccc(Cl)cc2F)c(Cl)nc(-n2cccn2)c1=O [compound 45] | – | – | – | – | – | 100* % | – | – | – | – | – | – | 0 | 0 | 0 | 82 | 85 | Test L disease control rating ([1]; 200 ppm): 85%; Test H disease control rating (Septoria nodorum; 200 ppm): 100%; Test G disease control rating (Rhizoctonia oryzae; 200 ppm): 26%; Test E disease control rating (Botrytis cinerea; 200 ppm): 100%; Test B disease control rating ([2]; 200 ppm): 100%; Test K disease control rating ([3]; 200 ppm): 100%
9 | O=c1c(-n2cccn2)nc(Cl)c(-c2c(F)cccc2F)n1Cc1cccc(Cl)c1 [compound 275] | – | – | – | – | – | – | – | – | – | – | – | – | – | – | – | – | – | Test F disease control rating (Phytophthora infestans; [4]): 0* %; Test A disease control rating (Pythium aphanidermatum; [4]): 0* %; Test D disease control rating (Plasmopara viticola; [4]): 0* %; Test L disease control rating [1, 4]: 61* %; Test H disease control rating (Septoria nodorum; [4]): 99* %; Test J disease control rating (Septoria tritici; [4]): 100* %; Test G disease control rating (Rhizoctonia oryzae; [4]): 0* %; Test E disease control rating (Botrytis cinerea; [4]): 100* %; Test B disease control rating [2, 4]: 47* %; Test I disease control rating (fusarium graminearium; [4]): 0* %; Test K disease control rating [3, 4]: 97* %; Test C disease control rating (Sclerotinia sclerotiorum; [4]): 0* %
10 | O=c1c(-n2cccn2)nc(Cl)c(-c2c(F)cccc2F)n1CC1CCCO1 (stereo not drawn) [compound 91] | – | – | – | 0* % | 33* % | 93* % | 0* % | 92* % | 0* % | – | 0* % | – | 0 | 0 | 0 | 0 | 0 | –
